Measurements published in patent US6555323B2, “Assay for ABCA1” (Pfizer Inc., priority 2000, dated 2003).

Legend:
[1] = tested on: ABCA1; experiment: Cellular cholesterol efflux to apo-AI from [3H]-cholesterol-labeled J774 macrophages; format: cell-based, mouse; conditions: 16 hours pretreatment, J774 cells, apo-AI 20 μg/ml acceptor
Procedure: (§1) Stock cultures of J774 mouse macrophage cell line were grown in RPMI 1640 supplemented with 10% FBS and 50 μg/ml gentamicin at 37° C. in a humidified atmosphere containing 95% air and 5% CO2.
(§2) Cells were seeded in 96 wells (96-well plate, 0.15 ml/well) using 50,000 to 100,000 cells per well and grown in RPMI 1640-10% FBS and 0.5% gentamicin at37° C. for 72 hours to achieve 80-90% confluence. Radiolabeled cholesterol ([1,2-^3H] cholesterol, New England Nuclear) was added to the cells by adding a tracer amount (1-5 μCi/well in a final concentration of 0.1% ethanol) to FBS, which was then diluted to a final concentration of 1% in RPMI. An acyl-CoA cholesterol acyltransferase (ACAT) inhibitor (decanamide, 2-(hexylthio)-N-[6-methyl-2,4-bis(methylthio)-3-pyridinyl]-,(2S)-(9Cl) at 2 μg/ml) was added to the labeling medium. […] Cells were grown in the presence of the radiolabel for two additional days to obtain confluent monolayers. For experiments where cells are enriched in free cholesterol, acetylated LDL (100 μg of protein/ml) was included in the labeling mixture. Following the labeling period, cells were extensively washed using MEM-Hepes medium supplemented with 0.5% gentamicin, and incubated with either cpt-cAMP (positive control) at 0.3 mM or test compounds (varying concentrations may be used, although […] was selected for the present experiment) for an additional 16 hours.
At the end of the pretreatment period with cpt-cAMP or test compounds, cells were extensively washed with MEM-Hepes medium containing gentamicin and incubated in RPMI 1640 medium containing the cholesterol acceptor apo-AI at a final concentration of 20 μg/ml. Parallel monolayers of control or treated cells were also incubated with acceptor-free medium to determine background, non-acceptor mediated cholesterol efflux. Cellular cholesterol efflux was quantified by measuring the release of cellular [^3H]-cholesterol into the medium as a function of time. An aliquot of the incubation medium was filtered using a 0.45 micron Millipore multiscreen plate to remove any floating cells and then counted using a Wallac Microbeta Counter (Perkin-Elmer Life Sciences, Turku, Finland).
The amount of radiolabeled cholesterol released from the cells (% efflux) is determined by the amount of radioactivity present in the incubation medium divided by the radioactivity at time zero (T0). Radtio activty at time zero is calculated as the amount of radioactivity in the cells as determined by isopropanol extraction at the end of the treatment time.

[2] = tested on: ABCA1 mRNA; experiment: ABCA1 mRNA level in treated cells; format: cell-based, mouse
Procedure: In the case where the analysis of ABCA1 expression is required, total RNA may be isolated (e.g., by the method according to Chomczynski et al., N. Anal. Biochem., 162:156 (1987)) and ABCA1 mRNA levels determined by standard techniques such as Northern blotting, slot blot hybridization, or Ribonuclease protection assays using ABCA1 specific mRNA probes.
as §1, §2

[3] = tested on: ABCA1; experiment: Cellular cholesterol efflux to apo-AI from [3H]-cholesterol-labeled J774 macrophages; format: cell-based, mouse; conditions: 1 μM, 16 hours pretreatment, J774 cells, apo-AI 20 μg/ml acceptor
[4] = target: T1, acyl-CoA cholesterol acyltransferase (ACAT) (Mus musculus, UniProt Q61263); experiment: ACAT inhibition in labeling medium of J774 cells; format: cell-based; conditions: 2 μg/ml in labeling medium
T1 construct: endogenous in cells; host or cells: J774 mouse macrophage cell line
T1 sequence (Q61263 1-540): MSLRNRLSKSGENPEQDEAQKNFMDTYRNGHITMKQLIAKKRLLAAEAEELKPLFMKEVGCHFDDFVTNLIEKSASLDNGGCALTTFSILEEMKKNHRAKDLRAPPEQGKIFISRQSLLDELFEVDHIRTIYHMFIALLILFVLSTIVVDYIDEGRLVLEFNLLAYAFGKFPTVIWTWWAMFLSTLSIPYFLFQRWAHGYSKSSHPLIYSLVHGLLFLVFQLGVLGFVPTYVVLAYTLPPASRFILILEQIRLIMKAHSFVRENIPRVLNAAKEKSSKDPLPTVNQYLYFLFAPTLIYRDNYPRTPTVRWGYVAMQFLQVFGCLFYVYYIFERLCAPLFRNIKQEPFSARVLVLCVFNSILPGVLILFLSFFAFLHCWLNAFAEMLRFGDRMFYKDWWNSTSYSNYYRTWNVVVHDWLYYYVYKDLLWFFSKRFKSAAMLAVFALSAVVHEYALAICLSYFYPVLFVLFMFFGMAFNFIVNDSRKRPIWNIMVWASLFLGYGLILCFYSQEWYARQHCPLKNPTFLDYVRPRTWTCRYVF
Procedure: as §2

| Structure (SMILES) | % of control (cholesterol efflux) ([1]; 5 μM) | other results |
| --- | --- | --- |
| COc1ccc(-c2cn3c(C)nnc3c(N3CCC4(CC3)C(=O)NCN4c3ccccc3)n2)cc1 | 101 % of control | – |
| CN(c1ccc(C(O)(C(F)(F)F)C(F)(F)F)cc1)S(=O)(=O)c1ccccc1[N+](=O)[O-] | 185 % of control | % of control mRNA ([2]; 5 μM): 160 % of control |
| O=S(=O)(c1ccccc1)N(CC(F)(F)F)c1ccc(C(O)(C(F)(F)F)C(F)(F)F)cc1 | 177 % of control | % of control mRNA ([2]; 5 μM): 680 % of control |
| Cc1nnc2c(N3CCC4(CC3)C(=O)NCN4c3ccccc3)nc(-c3ccc(O)cc3)cn12 | 106 % of control | – |
| COc1ccc(-c2cn3c(C)nnc3c(N3CCC(C)(N(C)c4cccc(F)c4)CC3)n2)cc1 | 94 % of control | – |
| COc1ccc(-c2cn3c(C)nnc3c(N3CCC4(CC3)C(=O)NCN4c3ccccc3)n2)cc1OC | 111 % of control | – |
| Cc1nnc2c(N3CCC4(CC3)C(=O)NCN4c3ccccc3)nc(-c3ccc4c(c3)OCO4)cn12 | 82 % of control | – |
| COc1cc(-c2cn3c(C)nnc3c(N3CCC4(CC3)C(=O)NCN4c3ccccc3)n2)cc(OC)c1OC | 95 % of control | – |
| Cc1nnc2n1-c1sccc1C(c1ccccc1)=NC2 | 102 % of control | – |
| Cc1nnc2c(N3CCC4(CC3)C(=O)NCN4c3ccccc3)nc(-c3ccccc3)cn12 | 109 % of control | – |
| CCCCC[C@H](O)/C=C/[C@H]1[C@H](O)CC(=O)[C@@H]1CCCCCCC(=O)O [Prostaglandin E1, reference compound] | – | % of control mRNA ([2]; 1 μM): 1420 % of control; % of control (cholesterol efflux) [3]: 210 % of control |
| Nc1ncnc2c1nc(Sc1ccc(Cl)cc1)n2[C@@H]1O[C@@H]2COP(=O)(O)O[C@H]2[C@H]1O [cpt-cAMP, reference compound] | – | % of control (cholesterol efflux) ([1]; 0.3 mM): 425 % of control; % of control mRNA ([2]; 0.3 mM): 1600 % of control |
| CCCCCCCC[C@H](SCCCCCC)C(=O)Nc1c(SC)cc(C)nc1SC [decanamide, 2-(hexylthio)-N-[6-methyl-2,4-bis(methylthio)-3-pyridinyl]-,(2S)-(9Cl)] | – | ACAT activity [4]: completely inhibited |
